Experimental data published in the kinase profiling compilation of Christmann-Franck et al. (2016).

Columns and labels:
Experiment in all cases: radiometric filter-binding kinase assay, Kinase HotSpot
Conditions in all cases: compound 0.5 µM; ATP 10 µM
ABL1 (human) = ABL1 (human) (UniProt P00519)
ACVR1 (human) = ACVR1 (human) (UniProt Q04771)
ADRBK2 (human) = ADRBK2 (human) (UniProt P35626)
AKT3 (human) = AKT3 (human) (UniProt Q9Y243)
BLK (human) = BLK (human) (UniProt P51451)
BRSK1 (human) = BRSK1 (human) (UniProt Q8TDC3)
CAMK1G (human) = CAMK1G (human) (UniProt Q96NX5)
CDC42BPB (human) = CDC42BPB (human) (UniProt Q9Y5S2)
CDK3 CCNE1 (human) = CDK3 CCNE1 (human) (UniProt Q00526+P24864)
CDK5 CDK5R1 p25 (human) = CDK5 CDK5R1 p25 (human) (UniProt Q00535+Q15078)
CDK7 CCNH MNAT1 (human) = CDK7 CCNH MNAT1 (human) (UniProt P50613+P51948+P51946)
CSNK1D (human) = CSNK1D (human) (UniProt P48730)
Sequence of CSNK1D (human) (P48730 whole entry, looked up): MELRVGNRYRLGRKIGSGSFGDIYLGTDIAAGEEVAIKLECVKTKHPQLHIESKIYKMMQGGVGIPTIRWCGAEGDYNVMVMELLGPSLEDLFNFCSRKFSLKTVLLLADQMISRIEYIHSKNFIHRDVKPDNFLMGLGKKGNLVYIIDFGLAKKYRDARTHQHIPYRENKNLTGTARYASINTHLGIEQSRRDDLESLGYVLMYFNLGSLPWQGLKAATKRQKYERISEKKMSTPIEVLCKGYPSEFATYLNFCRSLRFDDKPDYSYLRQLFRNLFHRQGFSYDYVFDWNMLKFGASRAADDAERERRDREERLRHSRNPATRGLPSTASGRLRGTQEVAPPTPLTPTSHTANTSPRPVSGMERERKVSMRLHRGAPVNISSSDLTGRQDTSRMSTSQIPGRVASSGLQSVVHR

CSNK1G2 (human) = CSNK1G2 (human) (UniProt P78368)
Sequence of CSNK1G2 (human) (P78368 whole entry, looked up): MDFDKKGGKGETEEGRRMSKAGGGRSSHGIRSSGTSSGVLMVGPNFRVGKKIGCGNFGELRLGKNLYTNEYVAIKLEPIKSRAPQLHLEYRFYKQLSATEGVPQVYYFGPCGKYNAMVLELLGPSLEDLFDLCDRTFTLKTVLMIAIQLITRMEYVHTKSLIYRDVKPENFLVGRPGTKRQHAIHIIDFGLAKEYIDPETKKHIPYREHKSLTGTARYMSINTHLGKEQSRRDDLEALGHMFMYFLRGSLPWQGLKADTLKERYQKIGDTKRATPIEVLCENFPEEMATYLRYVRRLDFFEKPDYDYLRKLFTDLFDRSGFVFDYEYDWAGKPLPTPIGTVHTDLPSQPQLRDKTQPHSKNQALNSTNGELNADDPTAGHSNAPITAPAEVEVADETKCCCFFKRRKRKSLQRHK

CSNK2A1 (human) = CSNK2A1 (human) (UniProt P68400)
DAPK3 (human) = DAPK3 (human) (UniProt O43293)
DYRK1A (human) = DYRK1A (human) (UniProt Q13627)
DYRK1B (human) = DYRK1B (human) (UniProt Q9Y463)
DYRK4 (human) = DYRK4 (human) (UniProt Q9NR20)
Sequence of DYRK4 (human) (Q9NR20 whole entry, looked up): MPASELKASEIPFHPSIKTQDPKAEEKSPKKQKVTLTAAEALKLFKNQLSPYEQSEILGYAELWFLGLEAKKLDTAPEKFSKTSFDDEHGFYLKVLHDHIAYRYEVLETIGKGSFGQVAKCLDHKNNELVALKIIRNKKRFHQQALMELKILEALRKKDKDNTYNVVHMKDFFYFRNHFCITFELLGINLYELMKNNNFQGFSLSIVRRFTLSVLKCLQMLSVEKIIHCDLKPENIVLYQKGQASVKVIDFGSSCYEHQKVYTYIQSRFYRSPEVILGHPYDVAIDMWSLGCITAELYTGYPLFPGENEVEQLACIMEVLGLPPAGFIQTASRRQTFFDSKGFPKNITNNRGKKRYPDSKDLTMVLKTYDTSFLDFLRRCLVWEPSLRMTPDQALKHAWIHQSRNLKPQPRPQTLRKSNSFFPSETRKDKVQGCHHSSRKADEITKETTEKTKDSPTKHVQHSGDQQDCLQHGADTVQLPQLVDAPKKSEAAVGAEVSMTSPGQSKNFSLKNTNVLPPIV

EPHA5 (human) = EPHA5 (human) (UniProt P54756)
EPHA7 (human) = EPHA7 (human) (UniProt Q15375)
FGFR4 (human) = FGFR4 (human) (UniProt P22455)
FLT3 (human) = FLT3 (human) (UniProt P36888)
Sequence of FLT3 (human) (P36888 whole entry, looked up): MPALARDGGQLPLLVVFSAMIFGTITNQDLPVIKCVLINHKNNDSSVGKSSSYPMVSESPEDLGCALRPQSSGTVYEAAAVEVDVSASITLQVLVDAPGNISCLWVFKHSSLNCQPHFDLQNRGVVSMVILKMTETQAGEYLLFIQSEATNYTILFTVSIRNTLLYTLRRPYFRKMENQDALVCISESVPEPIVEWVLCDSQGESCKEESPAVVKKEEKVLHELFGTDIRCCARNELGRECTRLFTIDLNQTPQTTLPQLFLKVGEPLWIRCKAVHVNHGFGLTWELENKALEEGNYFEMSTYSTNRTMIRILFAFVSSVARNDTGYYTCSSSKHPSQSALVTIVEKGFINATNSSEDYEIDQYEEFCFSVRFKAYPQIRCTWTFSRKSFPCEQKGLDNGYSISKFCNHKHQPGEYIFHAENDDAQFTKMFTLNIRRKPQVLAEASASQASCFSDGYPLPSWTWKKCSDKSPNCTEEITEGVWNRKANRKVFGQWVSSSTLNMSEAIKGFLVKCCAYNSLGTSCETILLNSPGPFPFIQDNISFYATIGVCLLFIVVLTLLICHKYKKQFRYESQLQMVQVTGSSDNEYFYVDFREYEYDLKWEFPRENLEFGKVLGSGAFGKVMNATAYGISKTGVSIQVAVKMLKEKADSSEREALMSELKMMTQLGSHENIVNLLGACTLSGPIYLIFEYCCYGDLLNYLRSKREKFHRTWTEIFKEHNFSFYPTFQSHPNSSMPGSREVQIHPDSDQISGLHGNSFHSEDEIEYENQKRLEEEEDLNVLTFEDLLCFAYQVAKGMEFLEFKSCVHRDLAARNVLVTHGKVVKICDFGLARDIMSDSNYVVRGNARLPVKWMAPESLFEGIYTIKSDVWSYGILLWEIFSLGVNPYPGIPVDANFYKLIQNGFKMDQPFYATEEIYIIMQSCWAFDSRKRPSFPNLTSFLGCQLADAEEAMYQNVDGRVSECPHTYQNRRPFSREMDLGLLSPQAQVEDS

GRK4 (human) = GRK4 (human) (UniProt P32298)
IGF1R (human) = IGF1R (human) (UniProt P08069)
MAP4K5 (human) = MAP4K5 (human) (UniProt Q9Y4K4)
MAPK11 (human) = MAPK11 (human) (UniProt Q15759)
MYLK2 (human) = MYLK2 (human) (UniProt Q9H1R3)
NEK2 (human) = NEK2 (human) (UniProt P51955)
Sequence of NEK2 (human) (P51955 whole entry, looked up): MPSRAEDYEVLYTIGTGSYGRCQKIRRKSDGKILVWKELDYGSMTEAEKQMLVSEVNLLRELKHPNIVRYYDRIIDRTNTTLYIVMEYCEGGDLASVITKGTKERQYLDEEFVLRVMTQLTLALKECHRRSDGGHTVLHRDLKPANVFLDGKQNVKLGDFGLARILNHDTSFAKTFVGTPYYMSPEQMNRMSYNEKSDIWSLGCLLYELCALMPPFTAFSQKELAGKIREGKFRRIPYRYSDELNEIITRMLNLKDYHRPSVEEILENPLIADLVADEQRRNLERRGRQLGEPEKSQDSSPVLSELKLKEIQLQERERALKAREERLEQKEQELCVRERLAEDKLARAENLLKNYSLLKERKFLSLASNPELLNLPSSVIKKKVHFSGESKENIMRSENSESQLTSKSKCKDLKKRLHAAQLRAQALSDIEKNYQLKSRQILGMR

NEK3 (human) = NEK3 (human) (UniProt P51956)
Sequence of NEK3 (human) (P51956 whole entry, looked up): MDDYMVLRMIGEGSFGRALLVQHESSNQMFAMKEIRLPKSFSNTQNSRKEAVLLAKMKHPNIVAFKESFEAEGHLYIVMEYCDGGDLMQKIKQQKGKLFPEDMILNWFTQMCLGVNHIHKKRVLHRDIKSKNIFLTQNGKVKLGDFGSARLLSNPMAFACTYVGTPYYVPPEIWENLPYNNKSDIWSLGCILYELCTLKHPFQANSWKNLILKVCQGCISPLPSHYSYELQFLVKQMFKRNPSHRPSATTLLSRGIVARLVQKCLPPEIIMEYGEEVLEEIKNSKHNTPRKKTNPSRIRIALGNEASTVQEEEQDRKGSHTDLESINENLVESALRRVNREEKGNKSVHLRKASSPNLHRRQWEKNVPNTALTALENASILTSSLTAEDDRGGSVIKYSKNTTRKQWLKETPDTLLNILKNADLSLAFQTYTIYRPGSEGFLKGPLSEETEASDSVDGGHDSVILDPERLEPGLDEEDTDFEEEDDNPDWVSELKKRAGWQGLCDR

PBK (human) = PBK (human) (UniProt Q96KB5)
PLK3 (human) = PLK3 (human) (UniProt Q9H4B4)
PRKCB2 (human) = PRKCB2 (human) (UniProt P05771)
RIPK2 (human) = RIPK2 (human) (UniProt O43353)
ROS1 (human) = ROS1 (human) (UniProt P08922)
RPS6KA2 KD1 KD2 (human) = RPS6KA2 KD1 KD2 (human) (UniProt Q15349)
RPS6KA5 KD2 (human) = RPS6KA5 KD2 (human) (UniProt O75582)
Sequence of RPS6KA5 KD2 (human) (O75582 whole entry, looked up): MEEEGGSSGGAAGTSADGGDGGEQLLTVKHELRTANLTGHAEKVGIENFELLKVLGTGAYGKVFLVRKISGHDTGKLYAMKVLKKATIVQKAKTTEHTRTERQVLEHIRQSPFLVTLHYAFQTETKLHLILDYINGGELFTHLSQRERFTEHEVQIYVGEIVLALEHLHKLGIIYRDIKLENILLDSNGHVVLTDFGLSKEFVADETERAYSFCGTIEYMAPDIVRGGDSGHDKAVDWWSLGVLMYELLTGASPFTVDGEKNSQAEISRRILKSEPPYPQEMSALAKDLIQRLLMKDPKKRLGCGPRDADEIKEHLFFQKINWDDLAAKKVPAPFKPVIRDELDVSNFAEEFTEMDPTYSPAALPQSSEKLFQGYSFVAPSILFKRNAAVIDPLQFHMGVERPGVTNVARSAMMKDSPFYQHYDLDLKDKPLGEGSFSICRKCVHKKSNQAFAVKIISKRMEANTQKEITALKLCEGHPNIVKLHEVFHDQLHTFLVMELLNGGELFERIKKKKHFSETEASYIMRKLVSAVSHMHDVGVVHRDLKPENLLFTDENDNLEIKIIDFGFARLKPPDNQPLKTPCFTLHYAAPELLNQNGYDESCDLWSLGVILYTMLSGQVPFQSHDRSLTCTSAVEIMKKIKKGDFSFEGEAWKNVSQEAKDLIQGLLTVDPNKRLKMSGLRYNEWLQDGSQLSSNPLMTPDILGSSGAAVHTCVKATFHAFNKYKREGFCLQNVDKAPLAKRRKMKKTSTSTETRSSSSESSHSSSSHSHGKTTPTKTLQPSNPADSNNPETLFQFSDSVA

SGK3 (human) = SGK3 (human) (UniProt Q96BR1)
SIK2 (human) = SIK2 (human) (UniProt Q9H0K1)
TLK2 (human) = TLK2 (human) (UniProt Q86UE8)
TSSK1B (human) = TSSK1B (human) (UniProt Q9BXA7)
Sequence of TSSK1B (human) (Q9BXA7 whole entry, looked up): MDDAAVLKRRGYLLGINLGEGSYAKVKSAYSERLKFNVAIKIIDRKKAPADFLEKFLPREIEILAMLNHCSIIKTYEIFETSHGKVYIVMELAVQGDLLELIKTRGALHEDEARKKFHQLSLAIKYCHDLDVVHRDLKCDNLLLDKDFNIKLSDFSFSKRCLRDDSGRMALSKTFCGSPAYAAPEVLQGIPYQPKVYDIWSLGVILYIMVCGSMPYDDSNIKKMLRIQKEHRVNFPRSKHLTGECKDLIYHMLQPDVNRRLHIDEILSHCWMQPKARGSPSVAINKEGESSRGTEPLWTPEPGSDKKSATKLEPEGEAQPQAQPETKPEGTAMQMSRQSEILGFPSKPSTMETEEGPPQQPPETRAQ

WEE1 (human) = WEE1 (human) (UniProt P30291)

Sequence of ACVR1 (human) (Q04771 whole entry, looked up): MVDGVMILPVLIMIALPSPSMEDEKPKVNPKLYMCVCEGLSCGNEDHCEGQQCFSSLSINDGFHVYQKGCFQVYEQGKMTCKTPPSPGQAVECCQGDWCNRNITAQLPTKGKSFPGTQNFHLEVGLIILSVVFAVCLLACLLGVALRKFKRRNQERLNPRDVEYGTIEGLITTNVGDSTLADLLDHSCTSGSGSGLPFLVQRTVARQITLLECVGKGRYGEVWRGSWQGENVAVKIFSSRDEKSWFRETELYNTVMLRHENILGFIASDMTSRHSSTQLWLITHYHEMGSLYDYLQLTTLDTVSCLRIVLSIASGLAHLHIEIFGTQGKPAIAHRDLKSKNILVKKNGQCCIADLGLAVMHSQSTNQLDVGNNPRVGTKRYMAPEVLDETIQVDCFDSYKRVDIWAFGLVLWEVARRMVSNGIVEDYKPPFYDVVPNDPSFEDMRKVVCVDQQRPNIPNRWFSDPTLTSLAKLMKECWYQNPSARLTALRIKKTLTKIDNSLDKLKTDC

## CCC(=O)Nc1ccc2ncnc(Nc3cccc(Br)c3)c2c1
ABL1 (human)
  residual activity: 98.9%
ACVR1 (human)
  residual activity: 93.7%
ADRBK2 (human)
  residual activity: 99.2%
AKT3 (human)
  residual activity: 94.4%
BLK (human)
  residual activity: 90.7%
BRSK1 (human)
  residual activity: 83.3%
CAMK1G (human)
  residual activity: 92.1%
CDC42BPB (human)
  residual activity: 114%
CDK3 CCNE1 (human)
  residual activity: 86.5%
CDK5 CDK5R1 p25 (human)
  residual activity: 78.4%
CDK7 CCNH MNAT1 (human)
  residual activity: 102%
CSNK1D (human)
  residual activity: 96.9%
CSNK1G2 (human)
  residual activity: 98.1%
CSNK2A1 (human)
  residual activity: 99%
DAPK3 (human)
  residual activity: 104%
DYRK1A (human)
  residual activity: 89.2%
DYRK1B (human)
  residual activity: 95.2%
DYRK4 (human)
  residual activity: 113%
EPHA5 (human)
  residual activity: 101%
EPHA7 (human)
  residual activity: 102%
FGFR4 (human)
  residual activity: 95.2%
FLT3 (human)
  residual activity: 94.1%
GRK4 (human)
  residual activity: 96.2%
IGF1R (human)
  residual activity: 87.6%
MAP4K5 (human)
  residual activity: 89%
MAPK11 (human)
  residual activity: 92.9%
MYLK2 (human)
  residual activity: 96.4%
NEK2 (human)
  residual activity: 87.5%
NEK3 (human)
  residual activity: 99.6%
PBK (human)
  residual activity: 96.2%
PLK3 (human)
  residual activity: 93.2%
PRKCB2 (human)
  residual activity: 101%
RIPK2 (human)
  residual activity: 71.4%
ROS1 (human)
  residual activity: 97.5%
RPS6KA2 KD1 KD2 (human)
  residual activity: 87.2%
RPS6KA5 KD2 (human)
  residual activity: 90%
SGK3 (human)
  residual activity: 92.8%
SIK2 (human)
  residual activity: 98.7%
TLK2 (human)
  residual activity: 104%
TSSK1B (human)
  residual activity: 73.2%
WEE1 (human)
  residual activity: 80.2%

## O=C1NC(=O)/C(=C/c2ccc3c(c2)OC(F)(F)O3)S1
ABL1 (human)
  residual activity: 98.5%
ACVR1 (human)
  residual activity: 97.4%
ADRBK2 (human)
  residual activity: 102%
AKT3 (human)
  residual activity: 103%
BLK (human)
  residual activity: 99.2%
BRSK1 (human)
  residual activity: 88%
CAMK1G (human)
  residual activity: 107%
CDC42BPB (human)
  residual activity: 96.4%
CDK3 CCNE1 (human)
  residual activity: 99.4%
CDK5 CDK5R1 p25 (human)
  residual activity: 89.7%
CDK7 CCNH MNAT1 (human)
  residual activity: 98.3%
CSNK1D (human)
  residual activity: 98.9%
CSNK1G2 (human)
  residual activity: 84.5%
CSNK2A1 (human)
  residual activity: 22.6%
DAPK3 (human)
  residual activity: 104%
DYRK1A (human)
  residual activity: 84.6%
DYRK1B (human)
  residual activity: 101%
DYRK4 (human)
  residual activity: 97.7%
EPHA5 (human)
  residual activity: 100%
EPHA7 (human)
  residual activity: 98.7%
FGFR4 (human)
  residual activity: 91%
FLT3 (human)
  residual activity: 92.9%
GRK4 (human)
  residual activity: 102%
IGF1R (human)
  residual activity: 101%
MAP4K5 (human)
  residual activity: 88.1%
MAPK11 (human)
  residual activity: 95.7%
MYLK2 (human)
  residual activity: 96.6%
NEK2 (human)
  residual activity: 98.9%
NEK3 (human)
  residual activity: 92.6%
PBK (human)
  residual activity: 91.8%
PLK3 (human)
  residual activity: 92.4%
PRKCB2 (human)
  residual activity: 97.6%
RIPK2 (human)
  residual activity: 88.2%
ROS1 (human)
  residual activity: 88.5%
RPS6KA2 KD1 KD2 (human)
  residual activity: 97.3%
RPS6KA5 KD2 (human)
  residual activity: 91.1%
SGK3 (human)
  residual activity: 94.7%
SIK2 (human)
  residual activity: 101%
TLK2 (human)
  residual activity: 104%
TSSK1B (human)
  residual activity: 93.3%
WEE1 (human)
  residual activity: 88.8%
